According to US10548883B2, “Benzotriazole-derived α and β-unsaturated amide compound used as TGF-β RI inhibitor” (GENFLEET THERAPEUTICS (SHANGHAI) INC., priority 2016, dated 2020):

How the values were obtained:
[1] = tested on: NIH/3T3 mouse embryonic cells; experiment: Test of proliferation inhibition on NIH/3T3 mouse embryonic cells (CellTiter-Glo, with TGF-β1); type: cell-based; conditions: NIH3T3, 0.2 ng/mL TGF-β1, 72 h
Experimental: Promega's Luminescent Cell Viability Assay (CellTiter-Glo® method, i.e. ATP fluorescence activity detection and analysis), the compound is added to the cell culture plate for incubation. A substrate buffer for detecting intracellular ATP content was added on the day of detection. Slightly shake and centrifuge at 1000 rpm for 1 min. Tested after standing for 10 min. The assay plate was analyzed using Envision multifunctional enzyme marker of PerkinElmer, Inc., and the analysis mode was fluorescence detection, and the data was expressed by the reading of chemiluminescence signal at 400-700 nm.
i) When the cell growth coverage is about 70%, the cell layer was washed with 10 mL of Duchenne phosphate buffer (D-PBS) which is calcium- and magnesium-free, then 2 mL of 0.25% trypsin-EDTA digest was added. The cell culture flask was placed in a CO2 carbon dioxide incubator at 37° C. and incubated for 3-5 min, then 8 mL of complete culture medium containing 2% FBS DMEM cells was added, and the cells were puffed evenly into single cell and counted by Vi-cell cytometer, and NIH/3T3 cell suspension was diluted to 0.375×10^5/mL cells.
ii) 50 μL of 2% DMEM-containing medium was added around the 384-well cell culture plate, then 40 μL of cell suspension was added to the remaining wells to 1500 cells per well. The distribution of the cells was observed under a microscope, and the cell plates were placed in a cell culture incubator with 5% CO2 at 37° C.
iii) Dilution of the compound refers to the preparation of the compound.
iv) A mixture of 2% fetal bovine serum containing 1 ng/mL TGF-β1 in DMEM medium was added manually to the compound intermediate plate, 20 μL per well.
v) The compound intermediate plate was shook slightly for 10 sec at 1000 rpm/min and centrifuge for 10 sec.
vi) 10 uL of the mixed liquid from steps 4 and 5 of each well was transferred to the inoculated cell plate to a final volume of 50 μL by using a Bravo liquid workstation, and the final concentration of TGF-β1 was diluted to 0.2 ng/mL, and centrifuged for 10 sec at 1000 rpm/min. The plates were placed in an incubator with 5% carbon dioxide at 37° C., 5% carbon dioxide for 72 h. The final concentration of the compound is: (unit: μM)
vii) The cell plate containing the compound was cultured in a cell incubator with 5% CO2 at 37° C. for 3 days.
viii) After that, 25 μL of ATP fluorescence activity detection solution was added to each well of the cell plate, then shook gently for about 1 min and centrifuged at 500 rpm/min for about 30 sec, and the reading was performed in an Envision instrument after standing at room temperature for 10 min in the dark.

[2] = tested on: mouse breast cancer 4T1 cells; experiment: Tumor cell metastasis inhibition in BALB/c mouse orthotopic transplantation model of mouse breast cancer 4T1 cells; type: in vivo; conditions: 75 mg/kg PO once a day × 32
Experimental: Fluorescently labeled mouse breast cancer 4T1-Luc cells were expanded in vitro. Before the cells were collected, the mice were anesthetized with intraperitoneal injection of sodium pentobarbital. After anesthetized mice were fixed, the abdominal skin was disinfected with 70% alcohol. 100 uL of phosphate buffer (containing 0.5×10^6 4T1-luc2 cells) was inoculated into the left side of the fourth pair of abdominal mammary fat pads in mice, and the incision was sutured to disinfect the skin. The animals are kept warm with a warm blanket, observed until they wake up and put back in their cages. 0.1 mg/kg buprenorphine for pain relief was subcutaneously injected 30 min before surgery and 6 hours after surgery.
On the third day after modeling, the animals were subjected to bioluminescence detection by infrared data imaging, randomly grouped according to the fluorescence values, and administered according to the following experimental protocol, see Table 5.
To observe the inhibitory effect of embodiment 1 on tumor growth and metastasis, the experimental endpoint was designed to be 30-35 days after administration, with reference to historical data of the model. At the end of the experiment, the in situ tumor and various organ tissues were dissected, the tumor was weighed, and the fluorescence intensity of each organ was detected by IVIS fluorescence. Growth inhibition of orthotopic tumors can be compared by the weight of the in situ tumor in the experimental endpoint, and the inhibition curve is generated from the tumor volume measurement data twice a week during the experiment. The inhibition of tumor metastasis was determined by the presence or absence of fluorescence detection of each organ and the analysis of relative fluorescence intensity.
At the end of the experiment, the tumor weight will be detected and the relative tumor growth rate T/C (%) will be calculated; the tumor volume is calculated as: V=0.5a×b^2, and a and b represent the long and short diameters of the tumor, respectively. At the same time, the lung, liver, spleen, kidney, intestine and left upper limb were stripped, and fluorescence was detected to determine whether there was metastasis and metastasis intensity and ratio.
The antitumor effect of the compound was evaluated by the tumor growth inhibition rate TGI (%) or the relative tumor growth rate T/C (%).
Calculation of TGI (%): TGI (%)=[(1−mean tumor volume at the end of administration of a treatment group−mean tumor volume at the start of administration of the treatment group))/(mean tumor volume at the end of treatment of the solvent control group−mean tumor volume at the start of administration of the solvent control group)]×100%.
Relative tumor growth rate T/C (%) calculation: T/C(%)=Tt(treatment group)/Ct(control group)×100%, Tt is the average tumor volume at a certain measurement, and Ct takes the same day data.
The experimental results were statistically analyzed using one-way ANOVA. If there is a significant difference in F values, multiple comparisons should be made after ANOVA analysis. All data in this experiment were analyzed using SPSS 17.0. A significant difference was considered at p<0.05.
At the end of the experiment, each organ tissue was peeled off, and fluorescence imaging and fluorescence intensity value recording were measured by IVIS for 40 sec exposure within 8 min. The fluorescence imaging results of the tested tissues of the 10 animals excised by the maximum and minimum values are shown in Table 6.
According to the experimental end point, the fluorescence intensity of each group of organs was normalized by the control group, and the relative fluorescence intensity ratio of each group of organs was obtained. The ratio reflects the level of metastatic intensity on the corresponding organs.

[3] = animals with metastasis/animals in group
[4] = average organ fluorescence relative to control group

Cc1cccc(-c2nn3c(c2-c2ccc4ncnn4c2/C=C/C(N)=O)CCC3)n1 [Embodiment 1]
IC50 [1]: 500 to 2000 nM | Inhibition of metastasis of 4T1 (conclusion) [2]: significantly inhibited the metastasis of 4T1 in liver, spleen, kidney and intestine | Metastasis rate, intestine [2, 3]: 60% | Metastasis rate, kidney [2, 3]: 20% | Metastasis rate, liver [2, 3]: 50% | Metastasis rate, lung [2, 3]: 100% | Metastasis rate, spleen [2, 3]: 0% | Metastasis rate, upper limb [2, 3]: 90% | Metastasis level, intestine [2, 4]: 1% | Metastasis level, kidney [2, 4]: 67% | Metastasis level, liver [2, 4]: 10% | Metastasis level, lung [2, 4]: 9% | Metastasis level, spleen [2, 4]: 0% | Metastasis level, upper limb [2, 4]: 12%
